# Source: patent publication US10106853B2, “CUL4B as predictive biomarker for cancer treatment” (CORNELL UNIVERSITY, priority 2012, dated 2018)
# Key:
# Format in all cases: cell-based, Human
# [1] = tested on: γH2AX in BT474 cells; assay: Western blot analysis for γH2AX; details: CPT-treated BT474 cells with CUL4B silencing via shRNA vs control; 2 μM CPT
# Description: FIG. 3. CUL4B^k/d BT474 cells are susceptible to CPT-induced DNA damage. A) Persistent DNA damage in CPT-treated BT474-CUL4B^k/d cells. Control or CUL4B^k/d BT474 cells were treated with 2 μM of CPT for the indicated time periods, replenished with CPT-free fresh medium, incubated at 37° C. for 1 hour to repair DNA damage, and subjected to immunoblotting with the anti-γH2AX antibody to determine the extent of DNA damage. B) Immunofluorescent detection of γH2AX foci in control or CUL4B^k/d BT474 cells following CPT treatment. BT474 cells were infected with lentiviral control shRNA (shCtrl) or shCUL4B, treated with 2 μM CPT for 2 hours and replenished with CPT-free fresh medium, incubated at 37° C. for 1 hour to repair DNA damage. γH2AX foci were detected by immunofluorescent assay with the rabbit anti-γH2AX antibody and goat anti-rabbit secondary antibody conjugated with cy3 (red). Nuclei were stained with DAPI (blue). C, D) Percentage of γH2AX-positive cells and number of persistent γH2AX foci in a total of 300 γH2AX-positive cells. All values were presented as mean±S.E. Statistical significance was assessed by a two-tailed unpaired Student t-test (***: p<0.001). […]
# [2] = tested on: γH2AX foci in BT474 cells; assay: Immunofluorescent detection of γH2AX foci; details: 2 μM CPT 2 hours, 1 hour repair
# Description: FIG. 3. CUL4B^k/d BT474 cells are susceptible to CPT-induced DNA damage. A) Persistent DNA damage in CPT-treated BT474-CUL4B^k/d cells. Control or CUL4B^k/d BT474 cells were treated with 2 μM of CPT for the indicated time periods, replenished with CPT-free fresh medium, incubated at 37° C. for 1 hour to repair DNA damage, and subjected to immunoblotting with the anti-γH2AX antibody to determine the extent of DNA damage. B) Immunofluorescent detection of γH2AX foci in control or CUL4B^k/d BT474 cells following CPT treatment. BT474 cells were infected with lentiviral control shRNA (shCtrl) or shCUL4B, treated with 2 μM CPT for 2 hours and replenished with CPT-free fresh medium, incubated at 37° C. for 1 hour to repair DNA damage. γH2AX foci were detected by immunofluorescent assay with the rabbit anti-γH2AX antibody and goat anti-rabbit secondary antibody conjugated with cy3 (red). Nuclei were stained with DAPI (blue). C, D) Percentage of γH2AX-positive cells and number of persistent γH2AX foci in a total of 300 γH2AX-positive cells. All values were presented as mean±S.E. Statistical significance was assessed by a two-tailed unpaired Student t-test (***: p<0.001).
# Cells were initially grown on chamber slides. […] After PBS washes, cells were mounted with FluroSave™ Reagent (Calbiochem), and visualized under the fluorescence microscope, and images were captured via camera.
# [3] = tested on: BT474 cells; assay: Apoptosis by Western blotting of cleaved caspase-3 and PARP; details: CUL4B-silenced BT474 cells vs control cells
# Description: FIG. 4. Marked enhancement of apoptosis in BT474-CUL4B^k/d cells following CPT treatment. A, B) Control (shCtrl) or CUL4B^k/d BT474 (shCUL4B) cells were treated with indicated concentrations of CPT for 72 hours (A) or 100 nM CPT for 1, 2 and 3 days (B). Cells were then lysed and immunoblotted with antibodies against native or cleaved caspase 3 or PARP to measure the induction of apoptosis. C) Control, CUL4A^k/d and CUL4B^k/d BT474 cells were treated with 100 nM CPT for 3 days. Cell lysates were prepared and immunoblotted with antibodies against native or cleaved PARP.
# DNA double stranded breaks are one of the most cytotoxic lesions as persistence of γH2AX foci after the initial induction of DNA damage leads to apoptosis. To examine whether CUL4B knockdown affects the sensitivity of breast cancer cells to CPT-induced apoptosis, BT474 cells were treated with CPT and analyzed for induction of apoptosis, as exemplified by cleavage of caspase-3 and PARP.
smiles,measurement,setting,value
"CC[C@@]1(O)C(=O)OCc2c1cc1n(c2=O)Cc2cc3ccccc3nc2-1 [CPT, (S)-4-ethyl-4-hydroxy-1H-pyrano[3′,4′:6,7]indolizino[1,2-b]quinoline-3,14-(4H, 12H)-dione]",Levels of γH2AX (Western blotting),[1],elevated
same,Cells with accumulation of γH2AX foci,[2]; CPT-treated CUL4B k/d BT474 cells,50%
same,Cells with accumulation of γH2AX foci,[2]; CPT-treated control BT474 cells,20%
same,Induction of apoptosis (cleaved caspase-3 and PARP) post-CPT treatment,[3],robust induction of apoptosis
